In BindingDB's records for doi:10.1021/jm00039a024 (Eisai, 1994):

Molecular target: cGMP-specific 3',5'-cyclic phosphodiesterase, PDE5 (Sus scrofa)
Experiment: Inhibitory activity against cGMP-phosphodiesterase from porcine aorta

| SMILES | IC50 [nM] |
| --- | --- |
| CSc1ccc2ncn(Cc3ccc4c(c3)OCO4)c(=O)c2c1 [3-Benzo[1,3]dioxol-5-ylmethyl-6-methylsulfanyl-3H-quinazolin-4-one] | 2300 |
| O=c1c2ccc(Cl)cc2ncn1Cc1ccc2c(c1)OCO2 [3-Benzo[1,3]dioxol-5-ylmethyl-7-chloro-3H-quinazolin-4-one] | 8700 |
| CN(C)C(=O)c1ccc2ncnc(NCc3ccc4c(c3)OCO4)c2c1 [4-[(Benzo[1,3]dioxol-5-ylmethyl)-amino]-quinazoline-6-carboxylic acid dimethylamide] | 2300 |
| CS(=O)(=O)c1ccc2ncnc(NCc3ccc4c(c3)OCO4)c2c1 [Benzo[1,3]dioxol-5-ylmethyl-(6-methanesulfonyl-quinazolin-4-yl)-amine] | 810 |
| OCc1ccc2ncnc(NCc3ccc4c(c3)OCO4)c2c1 [{4-[(Benzo[1,3]dioxol-5-ylmethyl)-amino]-quinazolin-6-yl}-methanol] | 930 |
| O=C(c1ccc2ncnc(NCc3ccc4c(c3)OCO4)c2c1)N1CCOCC1 [{4-[(Benzo[1,3]dioxol-5-ylmethyl)-amino]-quinazolin-6-yl}-morpholin-4-yl-methanone] | 2700 |

Other lines, results leading:

| IC50 [nM] | SMILES |
| --- | --- |
| 770 | NC(=O)c1ccc2ncnc(NCc3ccc4c(c3)OCO4)c2c1 [4-[(Benzo[1,3]dioxol-5-ylmethyl)-amino]-quinazoline-6-carboxylic acid amide] |
| 620 | CCOC(=O)c1ccc2ncnc(NCc3ccc4c(c3)OCO4)c2c1 [4-[(Benzo[1,3]dioxol-5-ylmethyl)-amino]-quinazoline-6-carboxylic acid ethyl ester] |
| 730 | COc1ccc2ncnc(NCc3ccc4c(c3)OCO4)c2c1OC [Benzo[1,3]dioxol-5-ylmethyl-(5,6-dimethoxy-quinazolin-4-yl)-amine] |
| 810 | COc1cc(OC)c2ncnc(NCc3ccc4c(c3)OCO4)c2c1 [Benzo[1,3]dioxol-5-ylmethyl-(6,8-dimethoxy-quinazolin-4-yl)-amine] |
| 380 | CCOc1ccc2ncnc(NCc3ccc4c(c3)OCO4)c2c1 [Benzo[1,3]dioxol-5-ylmethyl-(6-ethoxy-quinazolin-4-yl)-amine] |
| 230 | COc1ccc2ncnc(NCc3ccc4c(c3)OCO4)c2c1 [Benzo[1,3]dioxol-5-ylmethyl-(6-methoxy-quinazolin-4-yl)-amine] |
| 100 | Cc1ccc2ncnc(NCc3ccc4c(c3)OCO4)c2c1 [Benzo[1,3]dioxol-5-ylmethyl-(6-methyl-quinazolin-4-yl)-amine] |
| 350 | COc1cc2ncnc(NCc3ccc4c(c3)OCO4)c2cc1SC [Benzo[1,3]dioxol-5-ylmethyl-(7-methoxy-6-methylsulfanyl-quinazolin-4-yl)-amine] |
